pIC50: −log10 of the molar value. Where two headings read alike, the source gives them in different places.
Key:
[1] = molecular target: T1, recombinant human transglutaminase 2 (Homo sapiens, UniProt P21980); experiment: Transglutaminase assay: incorporation of dansylcadaverine into dimethylcasein (DCC-assay); assay type: biochemical
T1 sequence (P21980 1-687): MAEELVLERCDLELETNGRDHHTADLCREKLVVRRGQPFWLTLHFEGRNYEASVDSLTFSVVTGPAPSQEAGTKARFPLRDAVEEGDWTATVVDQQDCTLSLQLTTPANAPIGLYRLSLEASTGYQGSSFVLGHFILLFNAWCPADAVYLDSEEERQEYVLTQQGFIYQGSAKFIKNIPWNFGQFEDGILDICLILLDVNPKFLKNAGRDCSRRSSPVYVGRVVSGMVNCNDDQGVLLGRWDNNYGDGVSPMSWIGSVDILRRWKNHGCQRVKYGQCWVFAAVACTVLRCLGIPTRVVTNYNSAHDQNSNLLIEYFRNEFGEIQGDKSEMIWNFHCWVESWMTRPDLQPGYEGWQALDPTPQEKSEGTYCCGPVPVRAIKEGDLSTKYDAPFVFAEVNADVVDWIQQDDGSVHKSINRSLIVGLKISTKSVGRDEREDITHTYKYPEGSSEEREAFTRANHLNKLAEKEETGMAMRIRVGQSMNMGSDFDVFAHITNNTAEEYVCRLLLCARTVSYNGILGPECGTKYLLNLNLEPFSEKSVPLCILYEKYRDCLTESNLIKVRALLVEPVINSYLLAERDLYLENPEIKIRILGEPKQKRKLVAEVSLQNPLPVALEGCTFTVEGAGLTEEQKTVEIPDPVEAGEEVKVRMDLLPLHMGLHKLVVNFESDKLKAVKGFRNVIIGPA
Summary of the method: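 Recombinant human TG2 (10 nM final) incorporates dansylcadaverine (16.7 μM) into N,N-dimethylcasein (4 μM) in Tris-HCl buffer, pH 8.0, with 10 mM CaCl2 and 10 mM glutathione. Fluorescence (λex 330, λem 500 nm) followed 30 min. The slope between 20–30 min gives activity versus DMSO control, and IC50 comes from the concentration–activity plot.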

[2] = Log D by shake flask method (octanol / PBS pH 7.4, HPLC); assay type: physicochemical; details: octanol / PBS pH 7.4, shake flask; read-out: logD
Summary of the method: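 Shake-flask partitioning of compound between octanol and PBS at pH 7.4, with phase concentrations quantified by HPLC. The value reported is Log D.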

[3] = Caco-2 permeability assay (CacoReady kit); assay type: in vitro ADME; details: human
Summary of the method: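 Read-out is the permeability coefficient Papp, obtained from transport across a Caco-2 barrier prepared from a ready-to-use kit following the manufacturer's instructions.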

[4] = recombinant human TG2 10 nM, dansylcadaverine/dimethylcasein, read-out: IC50 TG2

| Compound | pIC50 [1, 4] | logD [2] | Papp [3] [×10⁻⁶ cm/s] | fold more potent compared to Ref. 3 ([1]; DCC-assay, ratio of IC50) [fold] | pIC50 ([1]; DCC-assay, values in text, read-out: IC50) |
| --- | --- | --- | --- | --- | --- |
| CCNC(=O)C(=O)CC[C@H](NC(=O)c1cnc(C)n1C)C(=O)Nc1cccn(CC(=O)NC23CC4CC(CC(C)(C4)C2)C3)c1=O [Compound I-27, (S)-2-(1,2-dimethyl-1H-imidazole-5-carboxamido)-N6-ethyl-N1-(1-(2-(3-methyladamantane-1-amino)-2-oxoethyl)-2-oxo-1,2-dihydropyridin-3-yl)-5-oxohexanediamide] | 5.46 to 6.22 | 1 to 3 | < 1 |  |  |
| CCNC(=O)C(=O)CC[C@H](NC(=O)c1cncn1C)C(=O)Nc1cccn(CC(=O)NC23CC4CC(CC(Br)(C4)C2)C3)c1=O [Compound I-10, (S)-N1-ethyl-N6-(1-(2-(3-bromoadamantane-1-amino)-2-oxoethyl)-2-oxo-1,2-dihydropyridin-3-yl)-5-(1-methyl-1H-imidazole-5-carboxamido)-2-oxohexanediamide] | 6.22 to 6.82 | < 1 | < 1 |  |  |
| CCNC(=O)C(=O)CC[C@H](NC(=O)c1cn(C2CCCC2)cn1)C(=O)Nc1cccn(CC(=O)NC23CC4CC(CC(CC)(C4)C2)C3)c1=O [Compound I-19, (S)-2-(1-cyclopentyl-1H-imidazole-4-carboxamido)-N6-ethyl-N1-(1-(2-(3-ethyladamantane-1-amino)-2-oxoethyl)-2-oxo-1,2-dihydropyridin-3-yl)-5-oxohexanediamide] | 5.46 to 6.22 | 3 to 5 | < 1 |  |  |
| CCNC(=O)C(=O)CC[C@H](NC(=O)c1cc(Br)c(Cl)s1)C(=O)Nc1cccn(CC(=O)NC2C3CC4CC(C3)CC2C4)c1=O (stereo partly drawn) [Compound I-52, (S)-2-(4-bromo-5-chlorothiophene-2-carboxamido)-N6-ethyl-N1-(1-(2-(2-adamantylamino)-2-oxoethyl)-2-oxo-1,2-dihydropyridin-3-yl)-5-oxohexanediamide] | > 6.82 | 3 to 5 | 1 to 10 |  |  |
| CCNC(=O)C(=O)CC[C@H](NC(=O)c1ccc2ccoc2c1)C(=O)Nc1cccn(CC(=O)NC2C3CC4CC2CC(C(N)=O)(C4)C3)c1=O (stereo partly drawn) [Compound I-114, (S)-2-(benzofuran-6-carboxamido)-N6-ethyl-N1-(1-(2-(4-aminoadamantane-1-carboxamide)-2-oxoethyl)-2-oxo-1,2-dihydropyridin-3-yl)-5-oxohexanediamide] | 6.22 to 6.82 | < 1 | < 1 |  |  |
| CCNC(=O)C(=O)CC[C@H](NC(=O)c1nonc1N)C(=O)Nc1cccn(CC(=O)NC23CC(C2)C3)c1=O [Compound I-108, (S)-2-(4-amino-1,2,5-oxadiazole-3-carboxamido)-N1-(1-(2-(bicyclo[1.1.1]pentan-1-ylamino)-2-oxoethyl)-2-oxo-1,2-dihydropyridin-3-yl)-N6-ethyl-5-oxohexanediamide] | 5.46 to 6.22 | < 1 | < 1 |  |  |
| CCNC(=O)C(=O)CC[C@H](NC(=O)c1cc(C#N)cn1C)C(=O)Nc1cccn(CCCC23CC4CC(CC(C4)C2)C3)c1=O [Compound I-86] | 5.46 to 6.22 | 3 to 5 | 1 to 10 |  |  |
| CCNC(=O)C(=O)CC[C@H](NC(=O)c1cc(Br)cs1)C(=O)Nc1cccn(CC(=O)NC2C3CC4CC(C3)CC2C4)c1=O (stereo partly drawn) [Compound I-51, (S)-2-(4-bromothiophene-2-carboxamido)-N6-ethyl-N1-(1-(2-(2-adamantylamino)-2-oxoethyl)-2-oxo-1,2-dihydropyridin-3-yl)-5-oxohexanediamide] | > 6.82 | 3 to 5 | 1 to 10 |  |  |
| CCC(CC)CNC(=O)Cn1cccc(NC(=O)[C@H](CC/C=C/C(=O)OC)NC(=O)c2cncn2C)c1=O [Ref. 2, reference compound] | > 6.82 | 1 to 3 | < 1 | 80 | 7.28 |
| CCNC(=O)C(=O)CC[C@H](NC(=O)c1cncn1C)C(=O)Nc1cccn(CC(=O)NC23CC4CC(C2)CC(C(F)(F)F)(C4)C3)c1=O [Compound I-6, (S)-N1-ethyl-N6-(1-(2-(3-trifluoromethyladamantane-1-amino)-2-oxoethyl)-2-oxo-1,2-dihydropyridin-3-yl)-5-(1-methyl-1H-imidazole-5-carboxamido)-2-oxohexanediamide] | 6.22 to 6.82 | < 1 | < 1 |  |  |

Further lines, results first:

| pIC50 [1, 4] | logD [2] | Papp [3] [×10⁻⁶ cm/s] | fold more potent compared to Ref. 3 ([1]; DCC-assay, ratio of IC50) [fold] | pIC50 ([1]; DCC-assay, values in text, read-out: IC50) | Compound |
| --- | --- | --- | --- | --- | --- |
| 6.22 to 6.82 | 1 to 3 | < 1 |  |  | CCNC(=O)C(=O)CC[C@H](NC(=O)c1cnc(C)n1C)C(=O)Nc1cccn(CC(=O)NC23CC4CC(C)(CC(C)(C4)C2)C3)c1=O [Compound I-24, (S)-2-(1,2-dimethyl-1H-imidazole-5-carboxamido)-N6-ethyl-N1-(1-(2-(3,5-dimethyladamantane-1-amino)-2-oxoethyl)-2-oxo-1,2-dihydropyridin-3-yl)-5-oxohexanediamide] |
| 6.22 to 6.82 | 3 to 5 | 1 to 10 |  |  | CCNC(=O)C(=O)CC[C@H](NC(=O)c1coc2ccccc12)C(=O)Nc1cccn(CC(=O)N[C@H]2C[C@H]3C[C@@H]([C@@H]2C)C3(C)C)c1=O [Compound I-77, (S)-2-(benzofuran-3-carboxamido)-N6-ethyl-5-oxo-N1-(2-oxo-1-(2-oxo-2-((1S,2S,3S,5R)-2,6,6-trimethylbicyclo[3.1.1]heptan-3-ylamino)ethyl)-1,2-dihydropyridin-3-yl)hexanediamide] |
| > 6.82 | 3 to 5 | 1 to 10 |  |  | CCNC(=O)C(=O)CC[C@H](NC(=O)c1cc2cccc(F)c2s1)C(=O)Nc1cccn(CC(=O)NC2C3CC4CC(C3)CC2C4)c1=O (stereo partly drawn) [Compound I-35, (S)-N1-ethyl-5-(7-fluorobenzo[b]thiophene-2-carboxamido)-N6-(1-(2-(2-adamantylamino)-2-oxoethyl)-2-oxo-1,2-dihydropyridin-3-yl)-2-oxohexanediamide] |
| 6.22 to 6.82 | < 1 | < 1 |  |  | CCNC(=O)C(=O)CC[C@H](NC(=O)c1ccncc1)C(=O)Nc1cccn(CC(=O)NC23CCC(CC2)C3)c1=O [Compound I-71, (S)-N1-(1-(2-((1s,4R)-bicyclo[2.2.1]heptan-1-ylamino)-2-oxoethyl)-2-oxo-1,2-dihydropyridin-3-yl)-N6-ethyl-2-(isonicotinamido)-5-oxohexanediamide] |
| 5.46 to 6.22 | 1 to 3 | < 1 |  |  | CCNC(=O)C(=O)CC[C@H](NC(=O)c1nccn1C)C(=O)Nc1cccn(CC(=O)NC23CC4CC(C)(CC(C)(C4)C2)C3)c1=O [Compound I-23, (S)-N1-ethyl-N6-(1-(2-(3,5-dimethyladamantane-1-amino)-2-oxoethyl)-2-oxo-1,2-dihydropyridin-3-yl)-5-(1-methyl-1H-imidazole-2-carboxamido)-2-oxohexanediamide] |
| 6.22 to 6.82 | < 1 | < 1 |  |  | CCNC(=O)C(=O)CC[C@H](NC(=O)c1csnn1)C(=O)Nc1cccn(CC(=O)NC23CC(C2)C3)c1=O [Compound I-117, (S)-N1-(1-(2-(bicyclo[1.1.1]pentan-1-ylamino)-2-oxoethyl)-2-oxo-1,2-dihydropyridin-3-yl)-N6-ethyl-5-oxo-2-(1,2,3-thiadiazole-4-carboxamido)hexanediamide] |
| > 6.82 | 3 to 5 | < 1 |  |  | CCNC(=O)C(=O)CC[C@H](NC(=O)c1nc2ccccc2[nH]1)C(=O)Nc1cccn(CC(=O)NC2C3CC4CC(C3)CC2C4)c1=O (stereo partly drawn) [Compound I-38, (S)-2-(1H-benzo[d]imidazole-2-carboxamido)-N6-ethyl-N1-(1-(2-(2-adamantylamino)-2-oxoethyl)-2-oxo-1,2-dihydropyridin-3-yl)-5-oxohexanediamide] |

Source: patent US20240270715A1, “INHIBITORS OF TRANSGLUTAMINASES” (ZEDIRA GMBH, priority 2021, published 2024)
